Measurements: ChEMBL document CHEMBL1140461, “Design and synthesis of thiazole-5-hydroxamic acids as novel histone deacetylase inhibitors” (Bioorg Med Chem Lett, 2007)

Legend:
[1] = biological target: Histone deacetylase; experiment: Inhibition of HDAC activity in HeLa cell nuclear extract by fluorescent assay; format: protein assay, Homo sapiens
[2] = tested on: MCF7; experiment: Antiproliferative activity against human MCF7 cells; format: functional

SMILES	IC50 [1] [µM]	GI50 [2] [µM]
CN1CCN(c2ncc(C(=O)NO)s2)CC1	> 100	> 100
O=C(NO)c1cnc(N2CCN(Cc3ccccc3)CC2)s1	> 100	4
O=C(/C=C/c1cnc(N2CCN(S(=O)(=O)c3ccc(F)cc3)CC2)s1)NO	4.7	2.5
O=C(NO)c1cnc(N2CCN(S(=O)(=O)c3ccc4ccccc4c3)CC2)s1	0.22	2
Cc1ccc(S(=O)(=O)N2CCN(c3ncc(C(=O)NO)s3)CC2)cc1	0.09	0.35
O=C(/C=C/c1cnc(N2CCN(S(=O)(=O)c3ccc(C(F)(F)F)cc3)CC2)s1)NO	15	3
O=C(NO)c1cnc(N2CCN(S(=O)(=O)c3ccc(-c4ccccc4)cc3)CC2)s1	0.2	1.8
O=C(/C=C/c1cnc(N2CCN(S(=O)(=O)c3ccccc3)CC2)s1)NO	0.44	3
COc1ccc(S(=O)(=O)N2CCN(c3ncc(C(=O)NO)s3)CC2)cc1OC	0.07	2
O=C(NO)c1cnc(N2CCN(S(=O)(=O)c3ccc([N+](=O)[O-])cc3)CC2)s1	0.4	10
CC(=O)N1CCN(c2ncc(C(=O)NO)s2)CC1	2.8	> 100
O=C(NO)c1cnc(N2CCN(CCc3ccccc3)CC2)s1	> 100	> 100
O=C(NO)c1cnc(N2CCN(C(=O)c3ccccc3)CC2)s1	3.5	40
O=C(NO)c1cnc(N2CCN(C(=O)Cc3ccccc3)CC2)s1	32	20
O=C(/C=C/c1cnc(N2CCN(S(=O)(=O)c3ccc(OC(F)(F)F)cc3)CC2)s1)NO	3.2	6
O=C(/C=C/c1cnc(N2CCN(S(=O)(=O)c3ccc([N+](=O)[O-])cc3)CC2)s1)NO	1.6	5
COc1ccc(S(=O)(=O)N2CCN(c3ncc(/C=C/C(=O)NO)s3)CC2)cc1OC	0.16	4
O=C(NO)c1cnc(N2CCN(S(=O)(=O)c3ccc(C(F)(F)F)cc3)CC2)s1	2.6	4
O=C(/C=C/c1cnc(N2CCN(S(=O)(=O)c3ccc4ccccc4c3)CC2)s1)NO	0.05	0.7
O=C(NO)c1cnc(N2CCN(S(=O)(=O)c3ccccc3)CC2)s1	0.57	10
O=C(NO)c1cnc(N2CCN(S(=O)(=O)c3ccc(F)cc3)CC2)s1	0.15	3.5
O=C(NO)c1cnc(N2CCN(S(=O)(=O)c3ccc(OC(F)(F)F)cc3)CC2)s1	1.2	4
O=C(/C=C/c1cnc(N2CCN(S(=O)(=O)c3ccc(-c4ccccc4)cc3)CC2)s1)NO	11	15
Cc1ccc(S(=O)(=O)N2CCN(c3ncc(/C=C/C(=O)NO)s3)CC2)cc1	0.55	2
